One data set in a line: Absorption spectrum. The format is physicochemical. As to conditions: in ethanol, water and ethanol/water (6:4), 2.3×10^−5M, room temperature. On the procedure:
Boc-badAla-OH prepared in Example 2 was dissolved respectively in ethanol, water and a mixture of ethanol and water (6:4) in a concentration of 2.3×10^−5M, and their absorption spectra were measured at room temperature using JASCO “V560” supplied by JASCO Corporation.

A short description of the next data set: Fluorescence lifetime. The data set is classed as physicochemical. As to conditions: 50 mM PBS (pH7.0), 3×10^−4M, room temperature, excitation 415 nm, measured at 500 nm. The procedure:
Boc-badAla-OH prepared in Example 2 was dissolved in 50 mM PBS (pH7.0) in a concentration of 3×10^−4M, and fluorescence intensity was measured at room temperature at 500 nm, setting the excitation wavelength at 415 nm of blue laser from a simple-type beam system, using Hamamatsu “microchannel photomultiplier tube” supplied by Hamamatsu Photonics K.K. which was cooled to −30° C., and then fluorescence lifetime was measured.
As a result, the obtained fluorescence lifetime was τ=16.6 nanoseconds.
While the lifetime of BODIPY, a commercial product, was 5.7 nanoseconds (MeOH) on the literature, and that of FITC was 4.1 nanoseconds (0.01M NaOH) on the literature. The other primary spectroscopic properties of fluorescent probes were listed on the homepage of IOM GmbH (see, www.iom-berlin.de).

A further data set is described as follows: Photostability. The data set is classed as physicochemical. As to conditions: water, 1.2×10^−6M, room temperature, continuous 468 nm irradiation for an hour. The procedure: Boc-badAla-OH prepared in Example 2 was dissolved in water in a concentration of 1.2×10^−6M, and photostability was examined at room temperature using ISA “FluoroMax-2” analyzer, irradiating a beam of 468 nm excitation wavelength continuously for an hour. As a result, […] an hour after the irradiation, it held 95% fluorescence intensity of that at the start of the experiment (FIG. 6). […] On the other hand, values of commercial products BODIPY and FITC shown on the literature, obtained by dissolving them respectively in TBS buffer for measurement on FluoroMax, were respectively 88% and 85%.

The conditions of data set [1]: 0.01M NaOH, on the literature; cited from earlier work.
The conditions of data set [2]: TBS buffer, measured on FluoroMax, values on the literature; cited from earlier work.

For `CC(C)(C)OC(=O)NC(Cc1ccc2[nH]c3cc4ccccc4cc3c(=O)c2c1)C(=O)O` (centres unmarked) [Boc-badAla-OH], the maximum absorption wavelength entry in “Absorption spectrum” is recorded as “around 460 nm”. For the same molecule, in “Fluorescence lifetime”, the “fluorescence lifetime τ” value is listed as 16.6 nanoseconds. In addition, in “Photostability”, the “fluorescence intensity held relative to start of experiment” value is on record as 95%.
With `O=C1OC2(c3ccc(O)cc3Oc3cc(O)ccc32)c2ccc(N=C=S)cc21` [FITC], in data set [1], the fluorescence lifetime was 4.1 nanoseconds. In data set [2], the “photostability (fluorescence intensity held)” value was 85%.

The values above are taken from patent US7928236B2, “Fluorescent amino acid derivatives” (National University Corporation Okayama University, priority 2005, dated 2011).
